Data taken from patent US7968599B2, “Fast release solid formulation, preparation and use thereof” (Intervet International B.V., priority 2007, dated 2011).

Test: Dissolution / solubility rate profile, USP apparatus 2 with paddle agitation
Format: physicochemical
Conditions: Milli-Q water 25° C., paddle 50 rpm, final 0.1 mg/mL florfenicol
Description: To determine the solubility profile of different formulations, dissolution was performed using USP apparatus 2 with paddle agitation at 50 rpm. The dissolution medium was Milli-Q water maintained at a temperature of 25° C. The formulations were added directly to the water in the correct amount to achieve a final concentration of 0.1 mg/mL of florfenicol. Aliquots of the resulting solution were withdrawn and analyzed using either UV-VIS spectrophotometry or HPLC, the latter to exclude excipient contribution or degradation of florfenicol. For HPLC analysis, an organic/aqueous mobile phase was used for the separation on a C18, reverse phase column. Detection was performed by UV absorption spectrometry. The percent dissolved was calculated versus an external reference standard prepared at the nominal concentration of the analyte.

percent florfenicol dissolved within 15 minutes (15 minutes): approximately 25%
percent florfenicol dissolved within 60 minutes (60 minutes): approximately 43%
Compound: CS(=O)(=O)c1ccc([C@@H](O)[C@@H](CF)NC(=O)C(Cl)Cl)cc1 (relative stereo) [florfenicol, [R-(R*,S*)]-2,2-Dichloro-N-[1-(fluoromethyl)-2-hydroxy-2-[4-(methylsulfonyl)phenyl]-ethyl]acetamide]
